According to patent US20240116985A1, “STAPLED PEPTIDES AND METHODS THEREOF” (priority 2020, published 2024):
In brackets after ≈: the same amount, converted by molar mass. Like-named read-outs stand apart in the source and are kept apart here. Starred links: 1 amine or outer side, 2 acyl side, 3 side chain; linkers in the order of their positions; H or OH if unused. Non-standard residues stand in square brackets, D forms with d. Residues, ends and D or L forms follow the SMILES beside them. X2 = C=CCCCC(CCCC=C)(N[*:1])C(=O)[*:2]; Bta = N[C@@H](Cc1csc2ccccc12)C(=O)O; αAllylPro = C=CC[C@@]1(C(=O)O)CCCN1; S8 = C=CCCCCCC[C@](C)(N)C(=O)O

How the values were obtained:
CHI Log D procedure = format: physicochemical; conditions: for CHI Log D: pH 7.4
Solubility in PBS = format: physicochemical
Method in brief: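 The PBS solution was ultracentrifuged and the supernatant analyzed by HPLC. Its peak area was divided by that of a 50 μM peptide DMSO reference injection and multiplied by 50 uM to give solubility.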

| SMILES | CHI Log D (CHI Log D procedure) | Solubility (Solubility in PBS) | logD (CHI Log D procedure; pH 7.4, CHI Log D) | Solubility (Solubility in PBS; Solubility (uM)) | chromatographic logD (CHI Log D procedure; pH 7.4, CHI Log D) |
| --- | --- | --- | --- | --- | --- |
| CC(=O)N1CCC[C@]12CC=CCCCC1(CCCC=CCCCCCC[C@@](C)(C(=O)N[C@@H](Cc3ccccc3)C(=O)N[C@@H](Cc3csc4ccccc34)C(=O)N[C@@H](CCC(N)=O)C(N)=O)NC(=O)[C@H](C)NC(=O)[C@H](Cc3c[nH]cn3)NC(=O)[C@H](C)NC(=O)[C@H](C)NC(=O)[C@H](CC(=O)O)NC(=O)[C@H](CC(=O)O)NC1=O)NC(=O)[C@H](C)NC(=O)[C@H](CC(=O)O)NC2=O (stereo partly drawn) [I-364, Ac-PL3-Asp-Ala-B5-Asp-Asp-Ala-Ala-His-Ala-S8-Phe-BztA-Gln-NH2] | 2.137 | 26 µM (≈ 45.8 µg/mL) |  |  |  |
| CC(=O)N1CCC[C@]12CC=CCCCC1(CCCC=CCCCCCC[C@@](C)(C(=O)N[C@@H](Cc3ccccc3)C(=O)N[C@@H](Cc3c[nH]c4ccccc34)C(=O)N[C@@H](CCC(N)=O)C(N)=O)NC(=O)[C@H](C(C)C)NC(=O)[C@H](Cc3cn(C)cn3)NC(=O)[C@H](C)NC(=O)[C@H](C)NC(=O)[C@H](CC(=O)O)NC(=O)[C@H](CC(=O)O)NC1=O)NC(=O)[C@H](C)NC(=O)[C@H](CC(=O)O)NC2=O (stereo partly drawn) [I-330, Ac-PL3-Asp-Ala-B5-Asp-Asp-Ala-Ala-1meH-Val-S8-Phe-Trp-Gln-NH2] | 2.047 | 21 µM (≈ 37.5 µg/mL) |  |  |  |
| CC(=O)N[C@@H](Cc1ccccc1)C(=O)N[C@@H](CC(=O)O)C(=O)N[C@@H](C)C(=O)N[C@]1(C)CCCCCCC=CCOC(=O)N2CC[C@@](C(=O)N[C@@H](Cc3ccccc3)C(=O)N[C@@H](Cc3c[nH]c4ccccc34)C(=O)N[C@@H](CCC(N)=O)C(N)=O)(C2)NC(=O)[C@H](C(C)C)NC(=O)[C@H](Cc2ccccc2)NC(=O)[C@H](C)NC(=O)[C@H](C)NC(=O)[C@H](Cc2ccc3ccccc3c2)NC(=O)[C@H](CC(=O)O)NC1=O [I-116, Ac-Phe-Asp-Ala-R8-Asp-2NapA-Ala-Ala-Phe-Val-PyrS-Phe-Trp-Gln-NH2] | 2.134 | 11 µM (≈ 20.9 µg/mL) |  |  |  |
| CC(=O)N1CCC[C@]12CC=CCCCC1(CCCC=CCCCCCC[C@@](C)(C(=O)N[C@@H](C)C(=O)N[C@@H](Cc3c[nH]c4ccccc34)C(=O)N[C@@H](CCC(N)=O)C(N)=O)NC(=O)[C@H](C(C)C)NC(=O)[C@H](Cc3ccccc3)NC(=O)[C@H](C)NC(=O)[C@H](C)NC(=O)[C@H](CC(=O)O)NC(=O)[C@H](CC(=O)O)NC1=O)NC(=O)[C@H](C)NC(=O)[C@H](CC(=O)O)NC2=O (stereo partly drawn) [I-355, Ac-PL3-Asp-Ala-B5-Asp-Asp-Ala-Ala-Phe-Val-S8-Ala-Trp-Gln-NH2] | 1.606 | 49 µM (≈ 83.5 µg/mL) |  |  |  |
| CC(=O)N1CCC[C@]12CC=CCCCC1(CCCC=CCCCCCC[C@@](C)(C(=O)N[C@@H](Cc3ccccc3)C(=O)N[C@@H](Cc3csc4ccccc34)C(=O)N[C@@H](CCC(N)=O)C(N)=O)NC(=O)[C@H](CC(N)=O)NC(=O)[C@H](Cc3ccccc3)NC(=O)[C@H](C)NC(=O)[C@H](C)NC(=O)[C@H](CCC(=O)O)NC(=O)[C@H](CNS(C)(=O)=O)NC1=O)NC(=O)[C@H](C)NC(=O)[C@H](CC(=O)O)NC2=O (stereo partly drawn) [I-529, Ac-PL3-Asp-Ala-B5-[MeSO2]Dap-Glu-Ala-Ala-Phe-Asn-S8-Phe-BztA-Gln-NH2] | 2.854 | 50 µM (≈ 93.8 µg/mL) |  |  |  |
| CC(=O)N1CCC[C@]12CC=CCCCC1(CCCC=CCCCCCC[C@@](C)(C(=O)N[C@@H](Cc3cccc(F)c3)C(=O)N[C@@H](Cc3c[nH]c4ccccc34)C(=O)N[C@@H](CCC(N)=O)C(N)=O)NC(=O)[C@H](CCC(N)=O)NC(=O)[C@H](Cc3ccsc3)NC(=O)[C@H](C)NC(=O)[C@H](C)NC(=O)[C@H](CCC(=O)O)NC(=O)[C@H](CC(=O)O)NC1=O)NC(=O)[C@H](C)NC(=O)[C@H](CC(=O)O)NC2=O (stereo partly drawn) [I-451, Ac-PL3-Asp-Ala-B5-Asp-Glu-Ala-Ala-3Thi-Gln-S8-3FF-Trp-Gln-NH2] | 1.88 | 50 µM (≈ 92.4 µg/mL) |  |  |  |
| CC(=O)N1CCC[C@]12CC=CCCCC1(CCCC=CCCCCCC[C@@](C)(C(=O)N[C@@H](Cc3cccc4ccccc34)C(=O)N[C@@H](Cc3c[nH]c4ccccc34)C(=O)N[C@@H](CCC(N)=O)C(N)=O)NC(=O)[C@H](C(C)C)NC(=O)[C@H](Cc3ccccc3)NC(=O)[C@H](C)NC(=O)[C@H](C)NC(=O)[C@H](CC(=O)O)NC(=O)[C@H](CC(=O)O)NC1=O)NC(=O)[C@H](C)NC(=O)[C@H](CC(=O)O)NC2=O (stereo partly drawn) [I-275, Ac-PL3-Asp-Ala-B5-Asp-Asp-Ala-Ala-Phe-Val-S8-1NapA-Trp-Gln-NH2] | 2.191 | 44 µM (≈ 80.6 µg/mL) |  |  |  |
| CC[C@H](C)[C@@H]1NC(=O)[C@H](CC(=O)O)NC(=O)[C@]2(CC=CCCCC3(CCCC=CCCCCCC[C@@](C)(C(=O)N[C@@H](Cc4ccccc4)C(=O)N[C@@H](Cc4ccccc4)C(=O)N[C@@H](CCC(N)=O)C(N)=O)NC(=O)[C@H](CCC(N)=O)NC(=O)[C@H](Cc4csc5ccccc45)NC(=O)[C@H](C)NC(=O)[C@H](C)NC(=O)[C@H](CCC(=O)O)NC(=O)[C@H](CC(=O)O)NC3=O)NC1=O)CCCN2C(C)=O (stereo partly drawn) [I-586, Ac-PL3-Asp-Ile-B5-Asp-Glu-Ala-Ala-BztA-Gln-S8-Phe-Phe-Gln-NH2] | 2.39 | 50 µM (≈ 94.2 µg/mL) |  |  |  |
| C=CCCCCCC[C@](C)(NC(=O)[C@H](CCC(N)=O)NC(=O)[C@H](Cc1ccccc1)NC(=O)[C@H](C)NC(=O)[C@H](C)NC(=O)[C@H](CC(=O)O)NC(=O)[C@H](CC(=O)O)NC(=O)C(CCCC=C)(CCCC=C)NC(=O)[C@H](C)NC(=O)[C@H](CC(=O)O)NC(=O)[C@]1(CC=C)CCCN1C(C)=O)C(=O)N[C@@H](Cc1ccccc1)C(=O)N[C@@H](Cc1csc2ccccc12)C(=O)N[C@@H](CCC(N)=O)C(N)=O [I-578, Ac-PL3-Asp-Ala-B5-Asp-Asp-Ala-Ala-Phe-Gln-S8-Phe-BztA-Gln-NH2] (Ac-[αAllylPro]DA[X2]DDAAFQ[S8]F[Bta]Q-NH2) |  | 50 µM (≈ 94.2 µg/mL) |  |  | 2.26 |

Further lines, results first:

| CHI Log D (CHI Log D procedure) | Solubility (Solubility in PBS) | logD (CHI Log D procedure; pH 7.4, CHI Log D) | Solubility (Solubility in PBS; Solubility (uM)) | chromatographic logD (CHI Log D procedure; pH 7.4, CHI Log D) | SMILES |
| --- | --- | --- | --- | --- | --- |
| 1.475 | 33 µM (≈ 69.5 µg/mL) |  |  |  | COCCOCCC(=O)NCCCC[C@@H]1NC(=O)[C@H](C)NC(=O)[C@H](CC(=O)O)NC(=O)[C@H](CC(=O)O)NC(=O)C2(CCCC=CCCCOC(=O)N3CC[C@@](C(=O)N[C@@H](Cc4ccsc4)C(=O)N[C@@H](Cc4csc5ccccc45)C(=O)N[C@@H](CCC(N)=O)C(N)=O)(C3)NC(=O)[C@H](CC(N)=O)NC(=O)[C@H](Cc3ccccc3)NC1=O)CCCC=CC[C@]1(CCCN1C(C)=O)C(=O)N[C@@H](CC(=O)O)C(=O)N[C@@H](CC(C)(C)C)C(=O)N2 (stereo partly drawn) [I-892, Ac-PL3-Asp-Npg-B5-Asp-Asp-Ala-[mPEG2]Lys-Phe-Asn-PyrS2-3Thi-BztA-Gln-NH2] |
|  |  | 1.99 | 47 µM (≈ 100 µg/mL) |  | CC(=O)N1CCC[C@]12CC=CCCCC1(CCCC=CCCCOC(=O)N3CC[C@@](C(=O)N[C@@H](Cc4ccsc4)C(=O)N[C@@H](Cc4csc5ccccc45)C(=O)N[C@@H](CCC(N)=O)C(=O)N[C@@H](C)C(=O)N[C@@H](C)C(=O)N[C@@H](C)C(N)=O)(C3)NC(=O)[C@H](CC(N)=O)NC(=O)[C@H](Cc3ccccc3)NC(=O)[C@H](C)NC(=O)[C@H](C)NC(=O)[C@H](CC(=O)O)NC(=O)[C@H](CC(=O)O)NC1=O)NC(=O)[C@H](CC(C)(C)C)NC(=O)[C@H](CC(=O)O)NC2=O (stereo partly drawn) [I-870, Ac-PL3-Asp-Npg-B5-Asp-Asp-Ala-Ala-Phe-Asn-PyrS2-3Thi-BztA-Gln-Ala-Ala] |
|  | 50 µM (≈ 104 µg/mL) | 2.35 |  |  | CC(=O)N1CCC[C@]12CC=CCCCC1(CCCC=CCCCCCC[C@@](C)(C(=O)N[C@@H](Cc3ccsc3)C(=O)N[C@@H](Cc3csc4ccccc34)C(=O)N[C@@H](CCC(N)=O)C(=O)N[C@@H](C)C(=O)N[C@@H](C)C(=O)N[C@H](C)C(N)=O)NC(=O)[C@H](CC(N)=O)NC(=O)[C@H](Cc3ccccc3)NC(=O)[C@H](C)NC(=O)[C@H](C)NC(=O)[C@H](CC(=O)O)NC(=O)[C@H](CC(=O)O)NC1=O)NC(=O)[C@H](CC(C)(C)C)NC(=O)[C@H](CC(=O)O)NC2=O (stereo partly drawn) [I-877, Ac-PL3-Asp-Npg-B5-Asp-Asp-Ala-Ala-Phe-Asn-S8-3Thi-BztA-Gln-Ala-Ala] |
|  | 50 µM (≈ 104 µg/mL) | 2.31 |  |  | CC(=O)N1CCC[C@]12CC=CCCCC1(CCCC=CCCCCCC[C@@](C)(C(=O)N[C@@H](Cc3ccsc3)C(=O)N[C@@H](Cc3csc4ccccc34)C(=O)N[C@@H](CCC(N)=O)C(=O)N[C@@H](C)C(=O)N[C@@H](C)C(=O)N[C@@H](C)C(N)=O)NC(=O)[C@H](CC(N)=O)NC(=O)[C@H](Cc3ccccc3)NC(=O)[C@H](C)NC(=O)[C@H](C)NC(=O)[C@H](CC(=O)O)NC(=O)[C@H](CC(=O)O)NC1=O)NC(=O)[C@H](CC(C)(C)C)NC(=O)[C@H](CC(=O)O)NC2=O (stereo partly drawn) [I-874, Ac-PL3-Asp-Npg-B5-Asp-Asp-Ala-Ala-Phe-Asn-S8-3Thi-BztA-Gln-Ala-Ala] |
|  |  | 1.62 | 38 µM (≈ 94.3 µg/mL) |  | CC(=O)N1CCC[C@]12CC=CCCCC1(CCCC=CCCCOC(=O)N3CC[C@@](C(=O)N[C@@H](Cc4ccsc4)C(=O)N[C@@H](Cc4csc5ccccc45)C(=O)N[C@@H](Cc4c[nH]cn4)C(N)=O)(C3)NC(=O)[C@H](CC(N)=O)NC(=O)[C@H](Cc3ccccc3)NC(=O)[C@H](C)NC(=O)[C@H](CCCCNC(=O)Cn3cc(CNC(=O)c4ccc5c(c4)C4(OC5=O)c5ccc(O)cc5Oc5cc(O)ccc54)nn3)NC(=O)[C@H](CC(=O)O)NC(=O)[C@H](CC(=O)O)NC1=O)NC(=O)[C@H](CC(C)(C)C)NC(=O)[C@H](CC(=O)O)NC2=O (stereo partly drawn) [I-865, Ac-PL3-Asp-Npg-B5-Asp-Asp-[FAM6Ppg][1TriAc]Lys-Ala-Phe-Asn-PyrS2-3Thi-BztA-His-NH2] |
| 2.935 | 50 µM (≈ 93.8 µg/mL) |  |  |  | CC(=O)N1CCC[C@]12CC=CCCCC1(CCCC=CCCCCCC[C@@](C)(C(=O)N[C@@H](Cc3ccccc3)C(=O)N[C@@H](Cc3csc4ccccc34)C(=O)N[C@@H](CCC(N)=O)C(N)=O)NC(=O)[C@H](CC(N)=O)NC(=O)[C@H](Cc3ccccc3)NC(=O)[C@H](C)NC(=O)[C@H](C)NC(=O)[C@H](CCC(=O)O)NC(=O)[C@H](CNS(C)(=O)=O)NC1=O)NC(=O)[C@H](C)NC(=O)[C@H](CC(=O)O)NC2=O (stereo partly drawn) [I-530, Ac-PL3-Asp-Ala-B5-[MeSO2]Dap-Glu-Ala-Ala-Phe-Asn-S8-Phe-BztA-Gln-NH2] |
